How the values were obtained:
[1] = biological target: T1, human serotonin 5-HT2A receptor (Homo sapiens, UniProt P28223); experiment: Radioligand binding ([3H]-ketanserin) to membranes of HEK-293 EBNA cells expressing human 5-HT2A receptor; details: 1.1 nM [3H]-ketanserin, HEK-293 EBNA membranes, 1 h at RT
T1 construct: expressed in transfected cells; host or cells: HEK-293 EBNA cells, transient transfection; membrane preparation
Experimental: (§1) The ability of the compounds to bind to the 5-HT2A, D3 and D2 receptors was determined using radioligand binding to cloned receptors selectively expressed in HEK-293 EBNA cells.
(§2) Membrane Preparation for Human D2, Human D3 and Human 5-HT2A Receptors
(§3) HEK-293 EBNA cells were transiently transfected with expression plasmids encoding for the human D2 or D3 dopamine- or for the human 5-HT2A serotonin receptor, respectively. The cells were harvested 48 h post-transfection, washed three times with cold PBS and stored at −80° C. prior to use. The pellet was suspended in cold 50 mM Tris-HCl buffer containing 10 mM EDTA (pH 7.4) and homogenized with a Polytron (Kinematica AG, Basel, Switzerland) for 20-30 sec at 12.000 rpm. After centrifugation at 48.000×g for 30 min at 4° C., the pellet was resuspended in cold 10 mM Tris-HCl buffer containing 0.1 mM EDTA (pH 7.4), homogenized, and centrifuged as above. This pellet was further resuspended in a smaller volume of ice cold 10 mM Tris-HCl buffer containing 0.1 mM EDTA (pH 7.4) and homogenized with a Polytron for 20-30 sec at 12.000 rpm. The protein content of this homogenate was determined with the Bio-Rad (Bradford) Protein Assay (Biorad Laboratories GmbH, München, Germany) according to the instructions of the manufacturer using gamma globulin as the standard. This homogenate was stored at −80° C. in aliquots and thawed immediately prior to use.
(§4) Radioligand Binding Assay Conditions
(§5) Aliquots of membrane preparations were thawed at RT, resupended in assay buffer (D2, D3: 50 mM Tris-HCl, 120 mM NaCl, 5 mM MgCl2, 1 mM EDTA, 5 mM KCl, 1.5 mM CaCl2, pH=7.4; 5-HT2A: 50 mM Tris-HCl, 10 mM MgCl2, 1 mM EGTA, pH=7.4), homogenized with a Polytron for 20-30 sec at 12.000 rpm and adjusted to a final concentration of approximately 7.5 μg protein/well (D2, D3) and 15 μg protein/well (5-HT2A), respectively.
(§6) The binding affinity (Ki) of the compounds was determined using radioligand binding. Membranes were incubated in a total volume of 200 μl with a fixed concentration of radioligand (final concentration approximately 0.7 nM [^3H]-spiperone for D2, 0.5 nM [^3H]-spiperone for D3, and 1.1 nM [^3H]-ketanserin for 5-HT2A) and ten concentrations of test compound in ranging between 10 μM-0.1 nM for 1 h at RT. At the end of the incubation, the reaction mixtures were filtered on to unifilter 96-well white microplates with bonded GF/C filters (Packard BioScience, Zurich, Switzerland; preincubated for 1 h in 0.1% polyethylenimine (PEI) in assay buffer) with a Filtermate 196 harvester (Packard BioScience) and washed 3 times with cold assay buffer. The nonspecific binding was determined with equally composed reaction mixtures in the presence of 10 μM unlabelled spiperone. Per well 45 μl of Microscint 40 (Perkin Elmer, Schwerzenbach, Switzerland) was added, plates for sealed, shaken for 20 min and counted for 3 min on a Topcount Microplate Scintillation Counter (Canberra Packard SA, Zurich, Switzerland) with quenching correction.
(§7) The CPM value for each duplicate of a concentration of competing compound was averaged (y1), then the % specific binding was calculated according to the equation (((y1−non-specific)/(total binding-non-specific))×100). Graphs were plotted with the % specific binding using XLfit, a curve fitting program that iteratively plots the data using Levenburg Marquardt algorithm. The single site competition analysis equation used was y=A+((B−A)/(1+((x/C)^D))), where y is the % specific binding, A is the minimum y, B is the maximum y, C is the IC50, x is the log10 of the concentration of the competing compound and D is the slope of the curve (the Hill Coefficient). From these curves the IC50 (inhibition concentration at which 50% specific binding of the radioligand was displaced) and Hill coefficient were determined. […]

[2] = biological target: T2, human dopamine D2 receptor (Homo sapiens, UniProt P14416); experiment: Radioligand binding ([3H]-spiperone) to membranes of HEK-293 EBNA cells expressing human D2 receptor; details: human D2, 0.7 nM [3H]-spiperone, HEK-293 EBNA membranes, 1 h at RT
T2 construct: expressed in transfected cells; host or cells: HEK-293 EBNA cells, transient transfection; membrane preparation
Experimental: as §1, §2, §3, §4, §5, §6, §7

[3] = biological target: T3, human dopamine D3 receptor (Homo sapiens, UniProt P35462); experiment: Radioligand binding ([3H]-spiperone) to membranes of HEK-293 EBNA cells expressing human D3 receptor; details: human D3, 0.5 nM [3H]-spiperone, HEK-293 EBNA membranes, 1 h at RT
T3 construct: expressed in transfected cells; host or cells: HEK-293 EBNA cells, transient transfection; membrane preparation
Experimental: as §1, §2, §3, §4, §5, §6, §7

T3 sequence (P35462 whole entry): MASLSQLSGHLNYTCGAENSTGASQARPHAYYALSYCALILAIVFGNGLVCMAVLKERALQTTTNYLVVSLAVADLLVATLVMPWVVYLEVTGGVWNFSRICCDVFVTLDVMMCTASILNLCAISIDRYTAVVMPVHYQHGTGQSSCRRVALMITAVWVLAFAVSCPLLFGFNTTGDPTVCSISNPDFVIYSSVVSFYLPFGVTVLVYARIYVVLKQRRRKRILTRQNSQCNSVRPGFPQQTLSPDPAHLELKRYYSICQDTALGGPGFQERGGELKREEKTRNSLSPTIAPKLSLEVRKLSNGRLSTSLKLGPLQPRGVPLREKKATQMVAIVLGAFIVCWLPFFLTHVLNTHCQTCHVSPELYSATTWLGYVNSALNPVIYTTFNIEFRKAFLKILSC
T1 sequence (P28223 whole entry): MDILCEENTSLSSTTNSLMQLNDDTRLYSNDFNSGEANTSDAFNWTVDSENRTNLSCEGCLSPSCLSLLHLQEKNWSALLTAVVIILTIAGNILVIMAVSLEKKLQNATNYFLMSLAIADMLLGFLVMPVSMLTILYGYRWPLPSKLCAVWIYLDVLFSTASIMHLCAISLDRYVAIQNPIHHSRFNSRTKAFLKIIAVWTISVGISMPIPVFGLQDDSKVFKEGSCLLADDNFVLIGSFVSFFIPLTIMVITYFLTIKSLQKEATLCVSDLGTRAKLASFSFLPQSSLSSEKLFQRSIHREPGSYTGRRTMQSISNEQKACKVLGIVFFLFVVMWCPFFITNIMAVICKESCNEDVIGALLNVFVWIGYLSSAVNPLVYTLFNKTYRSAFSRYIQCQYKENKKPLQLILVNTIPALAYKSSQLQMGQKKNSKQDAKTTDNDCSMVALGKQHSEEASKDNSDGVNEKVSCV
T2 sequence (P14416 whole entry): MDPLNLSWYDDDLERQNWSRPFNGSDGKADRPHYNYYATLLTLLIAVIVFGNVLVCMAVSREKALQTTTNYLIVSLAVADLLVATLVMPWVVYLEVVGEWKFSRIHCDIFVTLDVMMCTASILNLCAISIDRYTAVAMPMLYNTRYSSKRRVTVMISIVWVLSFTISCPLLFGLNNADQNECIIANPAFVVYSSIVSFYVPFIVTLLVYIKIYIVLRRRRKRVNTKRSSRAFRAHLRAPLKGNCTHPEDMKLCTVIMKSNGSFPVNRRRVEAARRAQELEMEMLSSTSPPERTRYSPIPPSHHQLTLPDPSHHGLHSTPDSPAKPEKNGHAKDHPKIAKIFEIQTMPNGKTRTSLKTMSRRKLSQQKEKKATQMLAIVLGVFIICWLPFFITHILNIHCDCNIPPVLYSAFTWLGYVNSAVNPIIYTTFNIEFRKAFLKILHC

Row | Ki [1] | Ki [2] | Ki [3] | Compound
1 | 35.1 nM | 3440 nM | 41.4 nM | COC1CCC(C(=O)N[C@H]2CC[C@H](CCN3CCN(c4noc5ccc(F)cc45)CC3)CC2)CC1 (stereo partly drawn) [Example 13, 4-Methoxy-cyclohexanecarboxylic acid N-trans-(4-{2-[4-(5-fluoro-benzo[d]isoxazol-3-yl)-piperazin-1-yl]-ethyl}-cyclohexyl)-amide]
2 | 28.1 nM | 1070 nM | 3.37 nM | CS(=O)(=O)N[C@H]1CC[C@H](CCN2CCN(c3noc4ccc(F)cc34)CC2)CC1 [Example 14, N-trans-(4-{2-[4-(5-Fluoro-benzo[d]isoxazol-3-yl)-piperazin-1-yl]-ethyl}-cyclohexyl)-methanesulfonamide]
3 | 15.4 nM | 752 nM | 6.34 nM | O=C(CC1COCCO1)N[C@H]1CC[C@H](CCN2CCN(c3noc4ccc(F)cc34)CC2)CC1 (stereo partly drawn) [Example 15, 2-[1,4]Dioxan-2-yl-N-trans-(4-{2-[4-(5-fluoro-benzo[d]isoxazol-3-yl)-piperazin-1-yl]-ethyl}-cyclohexyl)-acetamide]
4 | 14.4 nM | 1440 nM | 21.4 nM | COC1CCCC(C(=O)N[C@H]2CC[C@H](CCN3CCN(c4noc5ccc(F)cc45)CC3)CC2)C1 (stereo partly drawn) [Example 16, 3-Methoxy-cyclohexanecarboxylic acid N-trans-(4-{2-[4-(5-fluoro-benzo[d]isoxazol-3-yl)-piperazin-1-yl]-ethyl}-cyclohexyl)-amide]
5 | 25.4 nM | 592 nM | 1.83 nM | NC(=O)CC(=O)N[C@H]1CC[C@H](CCN2CCN(c3noc4ccc(F)cc34)CC2)CC1 [Example 17, N-trans-(4-{2-[4-(5-Fluoro-benzo[d]isoxazol-3-yl)-piperazin-1-yl]-ethyl}-cyclohexyl)-malonamide]
6 | 19.3 nM | 386 nM | 5.55 nM | O=C(C[C@H]1C[C@H](CO)C1)N[C@H]1CC[C@H](CCN2CCN(c3noc4ccc(F)cc34)CC2)CC1 [Example 20, N-trans-(4-{2-[4-(5-Fluoro-benzo[d]isoxazol-3-yl)-piperazin-1-yl]-ethyl}-cyclohexyl)-2-trans-(3-hydroxymethyl-cyclobutyl)-acetamide]
7 | 11.1 nM | 307 nM | 2.61 nM | CC1(CC(=O)N[C@H]2CC[C@H](CCN3CCN(c4noc5ccc(F)cc45)CC3)CC2)COC1 [Example 21, N-trans-(4-{2-[4-(5-Fluoro-benzo[d]isoxazol-3-yl)-piperazin-1-yl]-ethyl}-cyclohexyl)-2-(3-methyl-oxetan-3-yl)-acetamide]
8 | 32.7 nM | 1030 nM | 7.81 nM | CC1(C)C[C@@H](CC(=O)N[C@H]2CC[C@H](CCN3CCN(c4noc5ccc(F)cc45)CC3)CC2)CCO1 [Example 22, 2-((S)-2,2-Dimethyl-tetrahydro-pyran-4-yl)-N-(4-{2-[4-(5-fluoro-benzo[d]isoxazol-3-yl)-piperazin-1-yl]-ethyl}-cyclohexyl)-acetamide]
9 | 26.8 nM | 1060 nM | 7.03 nM | CC1(C)C[C@H](CC(=O)N[C@H]2CC[C@H](CCN3CCN(c4noc5ccc(F)cc45)CC3)CC2)CCO1 [Example 23, 2-((R)-2,2-Dimethyl-tetrahydro-pyran-4-yl)-N-(4-{2-[4-(5-fluoro-benzo[d]isoxazol-3-yl)-piperazin-1-yl]-ethyl}-cyclohexyl)-acetamide]
10 | 16.8 nM | 1070 nM | 4.55 nM | O=C(CC1OCCCO1)N[C@H]1CC[C@H](CCN2CCN(c3noc4ccc(F)cc34)CC2)CC1 [Example 24, 2-[1,3]Dioxan-2-yl-N-trans-(4-{2-[4-(5-fluoro-benzo[d]isoxazol-3-yl)-piperazin-1-yl]-ethyl}-cyclohexyl)-acetamide]
11 | 13.3 nM | 496 nM | 14.1 nM | COC1CCN(CC(=O)N[C@H]2CC[C@H](CCN3CCN(c4noc5ccc(F)cc45)CC3)CC2)CC1 [Example 25, N-trans-(4-{2-[4-(5-Fluoro-benzo[d]isoxazol-3-yl)-piperazin-1-yl]-ethyl}-cyclohexyl)-2-(4-methoxy-piperidin-1-yl)-acetamide]
12 | 15.9 nM | 761 nM | 2.12 nM | COC(CC(=O)N[C@H]1CC[C@H](CCN2CCN(c3noc4ccc(F)cc34)CC2)CC1)OC [Example 26, N-trans-(4-{2-[4-(5-Fluoro-benzo[d]isoxazol-3-yl)-piperazin-1-yl]-ethyl}-cyclohexyl)-3,3-dimethoxy-propionamide]
13 | 26.2 nM | 718 nM | 10 nM | COC[C@H]1C[C@H](CC(=O)N[C@H]2CC[C@H](CCN3CCN(c4noc5ccc(F)cc45)CC3)CC2)C1 [Example 27, N-trans-(4-{2-[4-(5-Fluoro-benzo[d]isoxazol-3-yl)-piperazin-1-yl]-ethyl}-cyclohexyl)-2-trans-(3-methoxymethyl-cyclobutyl)-acetamide]
14 | 22.8 nM | 918 nM | 8.78 nM | COC(CCC(=O)N[C@H]1CC[C@H](CCN2CCN(c3noc4ccc(F)cc34)CC2)CC1)OC [Example 28, N-trans-(4-{2-[4-(5-Fluoro-benzo[d]isoxazol-3-yl)-piperazin-1-yl]-ethyl}-cyclohexyl)-4,4-dimethoxy-butyramide]
15 | 8.59 nM | 490 nM | 8.68 nM | COCCC(=O)N[C@H]1CC[C@H](CCN2CCN(c3noc4cc(Cl)ccc34)CC2)CC1 [Example 29, N-trans-(4-{2-[4-(6-Chloro-benzo[d]isoxazol-3-yl)-piperazin-1-yl]-ethyl}-cyclohexyl)-3-methoxy-propionamide]
16 | 8.65 nM | 675 nM | 9.18 nM | CC(=O)N[C@H]1CC[C@H](CCN2CCN(c3noc4cc(Cl)ccc34)CC2)CC1 [Example 30, N-trans-(4-{2-[4-(6-Chloro-benzo[d]isoxazol-3-yl)-piperazin-1-yl]-ethyl}-cyclohexyl)-acetamide]
17 | 2.9 nM | 4990 nM | 8.89 nM | CO[C@H]1CC[C@H](CC(=O)N[C@H]2CC[C@H](CCN3CCN(c4noc5cc(Cl)ccc45)CC3)CC2)CC1 [Example 31, N-trans-(4-{2-[4-(6-Chloro-benzo[d]isoxazol-3-yl)-piperazin-1-yl]-ethyl}-cyclohexyl)-2-trans-(4-methoxy-cyclohexyl)-acetamide]
18 | 2.37 nM | 3040 nM | 15.9 nM | O=C(N[C@H]1CC[C@H](CCN2CCN(c3noc4cc(Cl)ccc34)CC2)CC1)C1CCOCC1 [Example 32, Tetrahydro-pyran-4-carboxylic acid N-trans-(4-{2-[4-(6-chloro-benzo[d]isoxazol-3-yl)-piperazin-1-yl]-ethyl}-cyclohexyl)-amide]
19 | 10.4 nM | 193 nM | 18.8 nM | O=C(N[C@H]1CC[C@H](CCN2CCN(c3noc4cc(Cl)ccc34)CC2)CC1)C1CCOC1 (stereo partly drawn) [Example 34, Tetrahydro-furan-3-carboxylic acid N-trans-(4-{2-[4-(6-chloro-benzo[d]isoxazol-3-yl)-piperazin-1-yl]-ethyl}-cyclohexyl)-amide]

Reference: patent US7858630B2, “D3 and 5-HT2A receptor modulators” (Hoffmann-La Roche Inc., priority 2008, dated 2010)
